# Measurements reported in patent publication US11981711B2, “Methods of treating spinal cord injury using a chondroitin sulfate proteoglycan (CSPG) reduction peptide (CRP) comprising a cell membrane penetrating domain, a CSPG binding domain, and a lysosome targeting domain” (The Cleveland Clinic Foundation, priority 2017, dated 2024).
# Legend:
# spinal cord injury (SCI) [1] = assay: Bladder function (voiding, CMG, EUS EMG) after T8 contusive SCI, sub-acute CRP treatment; type: in vivo, rat
# Description: (§1) In this Example, the CRP has been applied in a preclinical rat model to test the efficacy of the treatment of spinal cord injury (SCI). The injury was made at thoracic 8 level using contusive injury device. The contusive SCI is the most clinical relevance among all experimental SCI models. We have assessed both motor and bladder control as functional outcomes and analyzed anatomical evidences to support these findings. We also selected sub-acute phase (ONE-DAY after SCI) and chronic phase (TWO-MONTHs after SCI) to start our treatment.
# (§2) Furthermore CRP can efficiently improve locomotion and bladder electromyography (EMG) activities and voiding patterns after SCI.
# (A) Representative cystometrograms (CMG) with micturition (voiding) events (indicated by asterisk) for spinal-intact, SCI+scrambled peptide (scr) and SCI+CRP groups at 3 months post-SCI. […] N=6 to 8 per group.
# (A) Representative cystometrograms (CMG) with external urethral sphincter (EUS) electromyogram (EMG) recordings at micturition events for spinal-intact, SCI+scrambled peptide (scr) and SCI+CRP groups at 3 months post-SCI. […] The red dot indicates bursting activity. **, P<0.01; ***, P<0.001 when compared to the spinal-intact group; +, P<0.05, ++, P<0.01; +++, P<0.001 when compared to the scr group. N=6 to 8 per group.
# 5HT fibers = assay: 5HT fiber sprouting in lumbar cord after chronic SCI; type: in vivo, rat; conditions: vs scrambled peptide
# [2] = system: serotonin (5-HT) fibers and traced fibers from brain stem and red nuclei; assay: Axon sprouting below the lesion after SCI, sub-acute CRP treatment; type: in vivo, rat
# Description: as §2
# In particular, 5HT immunoreactivity in lumbosacral level after SCI. […] (G, H) Representative images with double staining of […]
# sciatic nerve injury = assay: Gait after complete sciatic nerve transection with peripheral nerve allograft, CRP treatment; type: in vivo; conditions: 3 months after complete sciatic nerve transection, subcutaneous once per day, vs vehicle
# Description: The representative 2D trajectory and improved kinematics parameters indicated CRP treated animals improved the stepping more toward to what the uninjured limb did, while compared to the vehicle treated animals. The CRP was delivered through subcutaneous injection near the injured site (once per day) staring immediately after surgery for 3 months.
# perineuronal nets (PNN) [3] = assay: Perineuronal nets (WFA staining) in lumbosacral spinal cord after T8 SCI; type: in vivo, rat; conditions: 3 months post SCI; vs scrambled peptide
# Description: (A, B) Representative L4 spinal cord transverse images show CRP treatment reduces overall PNN in grey matter of lumbar spinal cord neurons at 3 months post SCI. Notice areas with clear decreased WFA staining of the PNN (asterisk). […] (E, F) Representative higher power immunostaining images of the ventral horn of
# transverse L4 sections show the strong PNN intensity (arrow) surrounding the NeuN+ cells in scr treated SCI rats (E), while CRP treatment reduces them (F). *, P<0.05 when compared to the scr treatment. N=8 per group.
# spinal cord injury (SCI) [4] = assay: Bladder function after chronic SCI, CRP from two months after SCI; type: in vivo, rat
# Description: as §1
# (§3) The above were followed up with studies to evaluate the treatment effects of CRP in chronic SCI. The chronic SCI is not only way more challenge to be repaired but also is the clinical status of the majority of patients with SCI.
# The box area indicates the bursting activity.
# perineuronal nets (PNN) [5] = assay: PNN (WFA) in lumbar cord after chronic SCI; type: in vivo, rat
# Neu7-produced CSPGs = assay: Reduction of CSPG produced by Neu7 cells; type: cell-based
# [6] = system: chondroitin sulfate proteoglycan (CSPG); assay: CSPG expression around the spinal cord lesion after contusive SCI, treatment from one day after SCI; type: in vivo, rat
# Description: as §1, §2
# spinal cord injury (SCI) [7] = assay: Locomotion and gait after T8 contusive SCI, sub-acute CRP treatment; type: in vivo, rat
# Description: as §1, §2
# In particular, FIG. 26A-G show Kinematics assessment in SCI rats. (A) Representative total of hindlimb movement trajectories for spinal-intact, SCI+scrambled peptide (scr) and SCI+CRP groups at 3 months post-SCI. […] N=6 to 8 per group.
# spinal cord injury (SCI) [8] = assay: Locomotion (BBB 21-point score) and gait after chronic SCI, treatment from two months after SCI; type: in vivo, rat
# Description: Basso, Beattie, and Bresnahan (BBB) 21-point scoring test is used as the locomotion assessment after SCI. SCI causes significant deficits on locomotion function as indicated by the significant drop of BBB scores from 21 of the normal rats. […] However, ISP treatment slightly decreases BBB scores from 11.667±0.211 (two months after SCI) to 11.00±0.577 (two months plus 42 days after SCI) (A).
# as §1, §3
# [9] = 3 months post-SCI, T8 SCI, vs scrambled peptide
# [10] = 5 months post SCI vs two months post SCI (beginning of treatment)
substance,measurement,setting,value
YGRKKRRQRRR-PKPRVTWNKKGKKVNSQRF-KFERQKILDQRFFE (NYGRKKRRQRRRPKPRVTWNKKGKKVNSQRFKFERQKILDQRFFEC) [CRP],EUS bursting activity (EUS EMG during the void),spinal cord injury (SCI) [1]; [9],improves EUS bursting activity
same,bladder capacity (CMG),spinal cord injury (SCI) [1]; [9],smaller bladder capacity
same,hyperactive bladder (CMG),spinal cord injury (SCI) [1]; [9],reduces hyperactive bladder
same,voiding pressure (CMG),spinal cord injury (SCI) [1]; [9],lower voiding pressure
same,number and amplitude of non-voiding contraction (overactive bladder),"spinal cord injury (SCI) [1]; after SCI, sub-acute treatment",reduction of both the number and amplitude of non-voiding contraction
same,residual volume and volume per void,"spinal cord injury (SCI) [1]; after SCI, sub-acute treatment",reducing residual volume and volume per void toward normal condition
same,voiding patterns,"spinal cord injury (SCI) [1]; after SCI, sub-acute treatment",improves voiding patterns
same,"external urethral sphincter (EUS) activity: number of burst, EMG amplitude, coordination with detrusor contraction","spinal cord injury (SCI) [1]; during the void period, sub-acute treatment",improving external urethral sphincter (EUS) activity
same,5HT+ nerve fibers sprouting in lumbosacral level,5HT fibers,enhance 5HT+ nerve fibers sprouting
same,nerve sprouting below lesion from neuron in brain stem and red nucleic,"[2]; after SCI, sub-acute treatment",enhances nerve sprouting below lesion
same,sprouting of serotonin (5-HT) fibers below lesion,"[2]; after SCI, sub-acute treatment",enhances sprouting of serotonin (5-HT) fibers
same,immunoreactivity of 5HT fibers at L4 and L6/S1 levels,"[2]; severe contusive SCI, vs scrambled peptide",significantly increases immunoreactivity of 5HT fibers
same,stepping performance of hindlimbs,sciatic nerve injury,improved the stepping performance of hindlimbs
same,PNN at L4 and L6/S1 levels,perineuronal nets (PNN) [3],significant reduction of PNN
same,hyperactive bladder (CMG),spinal cord injury (SCI) [4]; 3 months of treatment starting at 2 months post SCI,reduce hyperactive bladder
same,EUS bursting activity during the void period,"spinal cord injury (SCI) [4]; chronic SCI, vs scrambled peptide",improve EUS bursting activity
same,voiding patterns,spinal cord injury (SCI) [4]; subcutaneous injection beginning two-month after SCI,significantly improves
same,PNN (WFA+) in lumbar cord,perineuronal nets (PNN) [5],robustly decreased PNN
same,dosage dependence of CSPG reduction,Neu7-produced CSPGs; Neu7 cells,dosage response
same,CSPG produced by Neu7 cells,Neu7-produced CSPGs; compared with ChABC,significantly reduces CSPG produced by Neu7 cells
same,CSPG,"[6]; three months after SCI, sub-acute treatment",significantly decreased CSPG
same,CSPG in lesion epicenter and adjacent tissue,"[6]; two weeks after contusive SCI, treatment starting one day after SCI, vs vehicle",significantly decreases SCI-induced increases in CSPG
same,"gait pattern parameters (kinematics, hindlimb trajectories)","spinal cord injury (SCI) [7]; 3 months post-SCI, vs scrambled peptide",significantly improved several parameters of gait pattern
same,motor function recovery,"spinal cord injury (SCI) [7]; out to 91 days post-contusion, sub-acute treatment",significantly promotes motor function recovery
same,BBB locomotion scale,spinal cord injury (SCI) [8]; [10],significant increases in BBB locomotion scale
same,stepping kinematic of both hindlimbs (2D trajectory patterns),spinal cord injury (SCI) [8]; [10],improved stepping kinematic of both hindlimbs
same,average increases in BBB scores,"spinal cord injury (SCI) [8]; by two months plus 42 days after SCI, treatment starting two months after SCI",3.0±0.365
same,BBB score,spinal cord injury (SCI) [8]; two months after SCI (start of treatment),11.75±0.164
same,BBB score,"spinal cord injury (SCI) [8]; two months plus 42 days after SCI, treatment starting two months after contusive SCI",14.33±0.211
